From PubChem BioAssay AID2060342 (Molecular Pharmacology Branch, DTP, NCI, 2025)

Tested on: 171881-019-R-J1-PDC multicell spheroid viability
Assay: Anticancer human tumor 171881-019-R-J1-PDC patient-derived invasive breast carcinoma cell line growth inhibition [IpAb]
Conditions: for IC50: curve of first compound; for viability, T/C: stronger effect = lower value
Method in brief: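 Combinations with ipatasertib or abemaciclib were tested on tumour spheroids holding HUVEC (25%) and MSC (15%) alongside 60% malignant cells. Top concentration was at or near clinical Cmax (10 microM if undefined), descending in half-log steps.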
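Also: spheroids exposed to the agents for seven days before readout.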

C=CC(=O)N1CCN(c2nc(=O)n(-c3c(C)ccnc3C(C)C)c3nc(-c4c(O)cccc4F)c(F)cc23)C(C)C1 (stereo not given) + CCN1CCN(Cc2ccc(Nc3ncc(F)c(-c4cc(F)c5nc(C)n(C(C)C)c5c4)n3)nc2)CC1
IC50 (second compound 0.01 µM): 8350 nM | IC50 (second compound 0.0316 µM): 9500 nM | IC50 (second compound 0.1 µM): > 10000 nM | IC50 (second compound 0.316 µM): > 10000 nM | IC50 (second compound 1 µM): > 10000 nM | viability, T/C (second compound 0.01 µM, first compound 0.0316 µM): 103% | viability, T/C (second compound 0.01 µM, first compound 0.1 µM): 90.1% | viability, T/C (second compound 0.01 µM, first compound 0.316 µM): 89.5% | viability, T/C (second compound 0.01 µM, first compound 1 µM): 94.8% | viability, T/C (second compound 0.01 µM, first compound 3.16 µM): 97.5% | viability, T/C (second compound 0.01 µM, first compound 10 µM): 41.6% | viability, T/C (second compound 0.0316 µM, first compound 0.0316 µM): 99.1% | viability, T/C (second compound 0.0316 µM, first compound 0.1 µM): 94.1% | viability, T/C (second compound 0.0316 µM, first compound 0.316 µM): 104% | viability, T/C (second compound 0.0316 µM, first compound 1 µM): 90.6% | viability, T/C (second compound 0.0316 µM, first compound 3.16 µM): 91.5% | viability, T/C (second compound 0.0316 µM, first compound 10 µM): 47.7% | viability, T/C (second compound 0.1 µM, first compound 0.0316 µM): 117% | viability, T/C (second compound 0.1 µM, first compound 0.1 µM): 128% | viability, T/C (second compound 0.1 µM, first compound 0.316 µM): 114% | viability, T/C (second compound 0.1 µM, first compound 1 µM): 108% | viability, T/C (second compound 0.1 µM, first compound 3.16 µM): 105% | viability, T/C (second compound 0.1 µM, first compound 10 µM): 49.7% | viability, T/C (second compound 0.316 µM, first compound 0.0316 µM): 136% | viability, T/C (second compound 0.316 µM, first compound 0.1 µM): 132% | viability, T/C (second compound 0.316 µM, first compound 0.316 µM): 132% | viability, T/C (second compound 0.316 µM, first compound 1 µM): 131% | viability, T/C (second compound 0.316 µM, first compound 3.16 µM): 114% | viability, T/C (second compound 0.316 µM, first compound 10 µM): 59.7% | viability, T/C (second compound 1 µM, first compound 0.0316 µM): 148% | viability, T/C (second compound 1 µM, first compound 0.1 µM): 148% | viability, T/C (second compound 1 µM, first compound 0.316 µM): 149% | viability, T/C (second compound 1 µM, first compound 1 µM): 143% | viability, T/C (second compound 1 µM, first compound 3.16 µM): 127% | viability, T/C (second compound 1 µM, first compound 10 µM): 76.6%

CC(C)(C)c1cnc(CSc2cnc(NC(=O)C3CCNCC3)s2)o1 + CCN1CCN(Cc2ccc(Nc3ncc(F)c(-c4cc(F)c5nc(C)n(C(C)C)c5c4)n3)nc2)CC1
IC50 (second compound 0.01 µM): 174 nM | IC50 (second compound 0.0316 µM): 182 nM | IC50 (second compound 0.1 µM): 191 nM | IC50 (second compound 0.316 µM): 196 nM | IC50 (second compound 1 µM): 185 nM | viability, T/C (second compound 0.01 µM, first compound 0.00949 µM): 104% | viability, T/C (second compound 0.01 µM, first compound 0.03 µM): 93.6% | viability, T/C (second compound 0.01 µM, first compound 0.0949 µM): 114% | viability, T/C (second compound 0.01 µM, first compound 0.3 µM): 5.39% | viability, T/C (second compound 0.01 µM, first compound 0.949 µM): 0.26% | viability, T/C (second compound 0.01 µM, first compound 3 µM): 0.29% | viability, T/C (second compound 0.0316 µM, first compound 0.00949 µM): 110% | viability, T/C (second compound 0.0316 µM, first compound 0.03 µM): 99.8% | viability, T/C (second compound 0.0316 µM, first compound 0.0949 µM): 121% | viability, T/C (second compound 0.0316 µM, first compound 0.3 µM): 3.9% | viability, T/C (second compound 0.0316 µM, first compound 0.949 µM): 0.25% | viability, T/C (second compound 0.0316 µM, first compound 3 µM): 0.36% | viability, T/C (second compound 0.1 µM, first compound 0.00949 µM): 116% | viability, T/C (second compound 0.1 µM, first compound 0.03 µM): 125% | viability, T/C (second compound 0.1 µM, first compound 0.0949 µM): 138% | viability, T/C (second compound 0.1 µM, first compound 0.3 µM): 0.81% | viability, T/C (second compound 0.1 µM, first compound 0.949 µM): 0.47% | viability, T/C (second compound 0.1 µM, first compound 3 µM): 0.46% | viability, T/C (second compound 0.316 µM, first compound 0.00949 µM): 132% | viability, T/C (second compound 0.316 µM, first compound 0.03 µM): 126% | viability, T/C (second compound 0.316 µM, first compound 0.0949 µM): 141% | viability, T/C (second compound 0.316 µM, first compound 0.3 µM): 1.4% | viability, T/C (second compound 0.316 µM, first compound 0.949 µM): 0.27% | viability, T/C (second compound 0.316 µM, first compound 3 µM): 0.57% | viability, T/C (second compound 1 µM, first compound 0.00949 µM): 148% | viability, T/C (second compound 1 µM, first compound 0.03 µM): 143% | viability, T/C (second compound 1 µM, first compound 0.0949 µM): 118% | viability, T/C (second compound 1 µM, first compound 0.3 µM): 1.51% | viability, T/C (second compound 1 µM, first compound 0.949 µM): 0.68% | viability, T/C (second compound 1 µM, first compound 3 µM): 1.06%
